Experiments:
[1] = test system: SCC1 cells (HPV-human HNSCC); assay: Colony forming assay (crystal violet, A540) in SCC1 cells; assay type: cell-based; conditions: 10-500 μM, p<0.03 compared to control, FIG. 7
Description: (§1) In order to further assess the effect of A-platin on cancer cell growth, colony forming assays using Head and Neck Squamous Cell Carcinoma (HNSCC) were preformed. Briefly, 10,000 cells were plated in triplicate in 6-well plates per treatment condition. The next day cells were treated with the cisplatin, A-platin, or G-platin at the variable doses. On day 6 from plating, cells were fixed in 70% ethanol and stained with 0.5% crystal violet in 10% ethanol. After sufficient washing and drying, cells were destained in 25% glacial acetic acid, and absorbance of 100 uL of each destain solution was read on a SpectraMax plate reader at 540 nm (A540). A540 is an indirect measure of the amount of crystal violet per well, and thus the number of cells per well.

[2] = test system: SCC47 cells (HPV+ human HNSCC); assay: Colony forming assay (crystal violet, A540) in SCC47 cells; assay type: cell-based; conditions: FIG. 7
Description: as §1

[3] = test system: Primary human tonsil epithelial cells (HTE); assay: Colony forming assay (crystal violet, A540) in primary HTE cells; assay type: cell-based; conditions: FIG. 7
[4] = test system: White blood cell (WBC) counts; assay: White blood cell (WBC) toxicity in mice; assay type: in vivo; conditions: FIG. 10
From the text: White blood cell (WBC) counts are important for immune mediated tumor clearance. In order to assess the level of WBC toxicity of induced by A-Platin relative the WBC lose was quantified in mice following treatment with drug along and drug administered in conjunction with radiation.

Structure (SMILES): N.N.[Cl][Pt][Cl] [Cisplatin, cis-diamminedichloroplatinum(II), reference compound]
- cell number relative to control (A540) [1]: reduced cell number relative to control
- cell number relative to control (A540) ([2]; 50-500 μM, p<0.0007 compared to control): reduced cell number relative to control
- cell number (A540) ([3]; 10-500 μM, p<0.04 compared to control): reduced cell number

Structure (SMILES): N[C@@H](Cc1ccc(N=C(O)CCC(=O)[O][Pt]([NH2])([NH2])([OH])([Cl])[Cl])cc1)C(=O)O [AT-Platin]
- white blood cell loss ([4]; drug treatment alone groups): less white blood cell loss
- white blood cell loss ([4]; drug+radiation groups): less white blood cell loss

Structure (SMILES): [NH2][Pt]([NH2])([OH])([Cl])([Cl])[O]C(=O)CCC(O)=N[C@@H]1C(O)[C@H](O)C(CO)O[C@@H]1O (some centres unmarked) [G-platin]
- cell number relative to control (A540) [1]: reduced cell number relative to control
- cell number relative to control (A540) ([2]; 10-500 μM, p<0.008 compared to control): reduced cell number relative to control
- cell number (A540) ([3]; 1-500 μM, p<0.007 compared to control): reduced cell number
